Assay results taken from patent US8324258B2, “F1F0-ATPase inhibitors and related methods” (The Regents of the University of Michigan, priority 2007, dated 2012).

Legend:
F1F0-ATPase [1] = target: T1, F1F0-ATPase (Bos taurus, UniProt P13621); assay: Inhibition of ATP synthesis by the F1F0-ATPase; format: biochemical; details: IC40: concentration for 40% inhibition
Method: (§1) The compounds listed in Table 9 were tested for activity against F1F0-ATPase by measuring ATP synthesis and ATP hydrolysis. In addition, the compounds were assessed for cytotoxicity in Ramos cells Inhibition of ATP synthesis and hydrolysis by the F1F0-ATPase and cytotoxicity in Ramos cells was measured as described in K. M. Johnson et al. Chemistry & Biology 2005, 12, 485-496.

F1F0-ATPase [2] = target: T1, F1F0-ATPase; assay: Inhibition of ATP hydrolysis by the F1F0-ATPase; format: biochemical; details: IC40: concentration for 40% inhibition
Method: as §1

Ramos cells = assay: Cytotoxicity (cell death) in Ramos cells; format: cell-based
Method: as §1

Structure (SMILES) | ATP Synthesis (IC40 μM) (F1F0-ATPase [1]) [µM] | ATP Hydrolysis (IC40 μM) (F1F0-ATPase [2]) [µM] | EC50 (Ramos cells; Ramos cells) [µM] | EC50 (Ramos cells; Homo sapiens, Ramos) [µM]
O=C(N=C(NCCc1c[nH]cn1)Nc1ccccc1C(F)(F)F)c1cccc(Cl)c1 [III-23, (Z/E)-N-((2-(1H-imidazol-4-yl)ethylamino)(2-(trifluoromethyl)phenylamino)methylene)-3-chlorobenzamide] | >20 | >20 | > 20 | 
COc1ccc(-c2ccc(NC(=NC(=O)c3cccc(Cl)c3)NCCc3c[nH]cn3)cc2)cc1 [III-35, (Z/E)-N-((2-(1H-imidazol-4-yl)ethylamino)(4′-methoxybiphenyl-4-ylamino)methylene)-3-chlorobenzamide] | <10 | >10 | < 10 | 
O=C(/N=C(/NCCc1cn[nH]c1)Nc1ccc(-c2ccccc2)cc1)c1cccc(Cl)c1 [IV-4, (Z/E)-N-((2-(1H-pyrazol-4-yl)ethylamino)(biphenyl-4-ylamino)methylene)-3-chlorobenzamide] | <10 | >10 |  | < 10
O=C(/N=C(/NCCc1c[nH]cn1)Nc1cccc2cc[nH]c12)c1cccc(Cl)c1 [Compound V-4, (Z/E)-N-((2-(1H-imidazol-4-yl)ethylamino)(1H-indol-7-ylamino)methylene)-3-chlorobenzamide] | >10 | >10 |  | > 30
O=C(N=C(NCCc1c[nH]cn1)Nc1ccc(-c2ccccc2)cc1)c1ccc(F)cc1 [II-9, (Z/E)-N-((2-(1H-imidazol-4-yl)ethylamino)(biphenyl-4-ylamino)methylene)-4-fluorobenzamide] | >20 | >30 | > 30 | 
O=C(N=C(NCCc1c[nH]cn1)Nc1cccc(C(F)(F)F)c1)c1cccc(Cl)c1 [III-24, (Z/E)-N-((2-(1H-imidazol-4-yl)ethylamino)(3-(trifluoromethyl)phenylamino)methylene)-3-chlorobenzamide] | <10 | <10 | > 10 | 
C[C@@H](Cc1c[nH]cn1)N/C(=N/C(=O)c1cccc(Cl)c1)Nc1ccc(-c2ccccc2)cc1 [IV-5, (S,Z/E)-N-((1-(1H-imidazol-4-yl)propan-2-ylamino)(biphenyl-4-ylamino)methylene)-3-chlorobenzamide] | <10 | <10 |  | < 10
N#Cc1cccc(C(=O)N=C(NCCc2c[nH]cn2)Nc2ccc(-c3ccccc3)cc2)c1 [II-6, (Z/E)-N-((2-(1H-imidazol-4-yl)ethylamino)(biphenyl-4-ylamino)methylene)-3-cyanobenzamide] | >20 | >30 | > 30 | 
CCc1ccc(NC(=NC(=O)c2cccc(Cl)c2)NCCc2c[nH]cn2)cc1 [III-43, (Z/E)-N-((2-(1H-imidazol-4-yl)ethylamino)(4-ethylphenylamino)methylene)-3-chlorobenzamide] | >10 | >20 | > 10 | 
O=C(N=C(NCCc1c[nH]cn1)Nc1ccc(-c2ccccc2)cc1)c1ccc(C(F)(F)F)cc1 [II-5, (Z/E)-N-((2-(1H-imidazol-4-yl)ethylamino)(biphenyl-4-ylamino)methylene)-4-(trifluoromethyl)benzamide] | >10 | >10 | < 10 | 
O=C(N=C(NCCc1c[nH]cn1)Nc1ccc(Br)cc1)c1cccc(Cl)c1 [III-20, (Z/E)-N-((2-(1H-imidazol-4-yl)ethylamino)(4-bromophenylamino)methylene)-3-chlorobenzamide] | >10 | >10 | > 10 | 
O=C(N=C(NCCc1c[nH]cn1)Nc1ccccc1-c1ccccc1)c1cccc(Cl)c1 [Compound I-8, (Z/E)-N-((2-(1H-imidazol-4-yl)ethylamino)(biphenyl-2-ylamino)methylene)-3-chlorobenzamide] | >10 | >10 | > 20 | 
